Assay results: patent publication EP4489718B1, “METHOD FOR ENCAPSULATING A HYDROPHOBIC COMPOUND, SUSPENSION OF STRUCTURED LIPID PARTICLES ACCORDING TO THIS METHOD, AND USES OF SAID SUSPENSION” (SEDERMA, priority 2022, dated 2023)
Like-named read-outs stand apart in the source and are kept apart here.

Assays:
[1] = Stability study on storage (retinol content by HPLC, colour, pH, particle size); type: physicochemical
Procedure: Samples were diluted in isopropanol. […] A calibration curve was performed. For an accelerated stability study, suspension samples according to the invention were stored for 365 days at room temperature (RT), 180 days at 40°C, 90 days at 5°C and 60 days at 50°C. The long-term stability study was evaluated at RT. Samples were analysed for characterization parameters at test times 0, 7, 14, 21, 30, 60, and 90, 180 and 365 days, depending on each storage condition. At each analysis time, a new bottle was opened for the first time. To assess the impact of product handling during stability, an additional bottle of each sample was stored at RT. This same bottle was opened and handled under an air atmosphere at each analysis time (7, 14, 21, 30, 60 and 90 days for all samples for RT) and the results were compared to the cases of the bottles newly opened for each analysis. All samples were handled without direct contact with light and under normal air conditions. No inert gas was used either to fill the bottles or to handle any sample.

[2] = type: physicochemical
Procedure: Aim: to study whether the encapsulated retinol according to the invention supported UV irradiation and to compare with the non-encapsulated free retinol (solubilized in soybean oil).
Protocol: two samples, one containing free retinol and the other encapsulated retinol, were irradiated for 1 hour at about 40cm from the bulb of the solar lamp.
Retinol assay: by HPLC (UV detection at 325nm), the samples having been solubilized and diluted in isopropyl alcohol and the quantification having been carried out using a standard curve ranging from 2 to 150 ppm of retinol.

[3] = physchem; type: physicochemical
Description: The Franz diffusion cell is the device most used to examine the release profiles of an active ingredient encapsulated in the capsules according to the invention. […] The product to be tested is placed in the upper chamber while the lower chamber collects the recipient fluid which has passed through the membrane. The rate and mechanism of release can be obtained by mathematical modelling. The rate can be calculated using the following first-order equation: […] And the release mechanism can be obtained using the Korsmeyer-Peppas model equation: Mt/M∞ = […] [formula] In which: • t is the release time • Mt is the quantity of released active at t time • M∞ is the total quantity of released active • Mt/M∞ being the fraction of released active at t time; • k is a kinetic constant, a measure of the release rate; and • n the diffusional exponent which gives an indication of the release mechanism of the active and takes on different values depending on the geometry of the release device. […] Selected membrane: […] Eight Franz cells containing the release medium and the membrane were prepared and placed in a temperature-controlled water bath of 32°C. […] The amount added to the membrane was 20% of the saturation concentration to ensure flow conditions. Samples were taken at selected intervals of 0.5 to 76 h with replacement of fresh medium. All samples collected were analysed for retinol content by HPLC on the day of the experiment. […] The mean of the four cells in both cases was plotted against time and used to apply the mathematical models. […] The release mechanism was obtained by the Korsmeyer-Peppas equation.

CC1=C(/C=C/C(C)=C/C=C/C(C)=C/CO)C(C)(C)CCC1 [Free retinol, retinol]
Retinol content in w/w % ([1]; storage 5°C, 0 days, suspension: new bottle for each test): 3.11 w/w % | Retinol content in w/w % ([1]; storage 5°C, 7 days, suspension: new bottle for each test): 3.14 w/w % | Retinol content in w/w % ([1]; storage 5°C, 14 days): 2.77 w/w % | Retinol content in w/w % ([1]; storage 5°C, 21 days): 0.42 w/w % | Retinol content in w/w % ([1]; storage 5°C, 30 days, suspension: new bottle for each test): 0.0 w/w % | Retinol content in w/w % ([1]; storage 40°C, 0 days, suspension: new bottle for each test): 3.11 w/w % | Retinol content in w/w % ([1]; storage 40°C, 7 days, suspension: new bottle for each test): 2.79 w/w % | Retinol content in w/w % ([1]; storage 40°C, 14 days): 0.89 w/w % | Retinol content in w/w % ([1]; storage 40°C, 21 days): 0.0 w/w % | Retinol content in w/w % ([1]; storage 40°C, 30 days, suspension: new bottle for each test): 0.0 w/w % | Retinol content in w/w % ([1]; storage 50°C, 0 days, suspension: new bottle for each test): 3.11 w/w % | Retinol content in w/w % ([1]; storage 50°C, 7 days, suspension: new bottle for each test): 2.51 w/w % | Retinol content in w/w % ([1]; storage 50°C, 14 days, suspension: new bottle for each test): 0.10 w/w % | Retinol content in w/w % ([1]; storage 50°C, 21 days, suspension: new bottle for each test): 0.0 w/w % | Retinol content in w/w % ([1]; storage 50°C, 30 days, suspension: new bottle for each test): 0.0 w/w % | Retinol content in w/w % ([1]; storage RT, 0 days, suspension: new bottle for each test): 3.11 w/w % | Retinol content in w/w % ([1]; storage RT, 7 days, suspension: new bottle for each test): 2.76 w/w % | Retinol content in w/w % ([1]; storage RT, 14 days, suspension: new bottle for each test): 2.40 w/w % | Retinol content in w/w % ([1]; storage RT, 21 days, suspension: new bottle for each test): 0.23 w/w % | Retinol content in w/w % ([1]; storage RT, 30 days, suspension: new bottle for each test): 0.25 w/w % | Actual content of retinol (in weight %) ([2]; After 1h of irradiation, about 40cm from solar lamp): 5.72 +/- 0.07 weight % | Actual content of retinol (in weight %) ([2]; Control (not irradiated)): 10.49 +/- 0.34 weight % | retinol degradation peaks in the chromatograms of the release samples [3]: degradation peaks from 10h | half-life ([3]; 3% tween 80 in water): 2.03 h | release rate ([3]; Franz cell, PVDF 0.1 µm membrane, 3% Tween 80 / 97% water, 32°C, first-order model): 0.00089 min⁻¹
